This is an account of results in US20250129097.

SMILES strings stand for the structures. Read-outs that look alike come from different tables or passages of the source.

The conditions of data set [1]: from CCn1c(-c2cc(N3CCN(c4cccc(COC=O)c4)CC3)cnc2[C@H](C)OC)c(CC(C)(C)CO)c2cc([C@@H]3C[C@H]3CC[C@H](NC(=O)OC(C)(C)C)C(=O)N3CCC[C@@H](C(=O)O)N3)ccc21; ester bond; 18-membered ring; EDCI/HOBt/DIEA; DCM; 10.8 mM; 45.0 °C; 16.0 h.
The conditions of data set [2]: ester bond, 18-membered ring, EDCI/HOBt/DIEA, DCM.

In turn, `CCn1c(-c2cc(N3CCN(c4cccc(COC=O)c4)CC3)cnc2[C@H](C)OC)c2c3cc(ccc31)[C@@H]1C[C@H]1CC[C@H](NC(=O)OC(C)(C)C)C(=O)N1CCC[C@H](N1)C(=O)OCC(C)(C)C2` had a ring closure, yield after HPLC in data set [1] of 4.8%. As for `CCn1c(-c2cc(N3CCN(C(=O)OCc4ccccc4)CC3)cnc2[C@@H](C)OC)c(CC(C)(C)CO)c2cc([C@H]3C[C@@H]3N(C)C[C@@H](NC(=O)OC(C)(C)C)C(=O)N3CCC[C@@H](C(=O)OC)N3)ccc21`, in data set [2] (the molecule shown is the open-chain precursor, 10.3 mM, 35.0 °C), the ring closure, isolated yield amounted to 16%. In data set [2] (from CCn1c(-c2cccnc2[C@H](C)OC)c(CC(C)(C)CO)c2cc([C@@H]3C[C@H]3OC[C@H](NC(=O)OC(C)(C)C)C(=O)N3CCC[C@@H](C(=O)O)N3)ccc21, 13.8 mM, 20.0 °C, 12.0 h), `CCn1c(-c2cccnc2[C@H](C)OC)c2c3cc(ccc31)[C@@H]1C[C@H]1OC[C@H](NC(=O)OC(C)(C)C)C(=O)N1CCC[C@H](N1)C(=O)OCC(C)(C)C2` showed a ring closure, isolated yield of 37%.
